Measurements: patent US20220242870A1, “HETEROCYCLE-FUSED PYRIMIDINE DERIVATIVE AND USE THEREOF” (VORONOI Inc., priority 2019, published 2022)
pIC50: −log10 of the molar value.

Columns and labels:
[1] = tested on: MV4-11 cells; experiment: AML cell proliferation inhibitory activity (CellTiter-Glo); type: cell-based; conditions: Homo sapiens, 72 hours
Description: The inhibitory activities of the example compounds according to the present invention on the proliferation of acute myeloid leukemia (AML) cells expressing the FLT3 mutant gene were evaluated. Specifically, RS4;11 and MV4-11 cells as acute myeloid leukemia cells expressing the FLT3 mutant gene were cultured in RPMI-1640 (Invitrogen) adding 10% FBS. The cells were seeded into each well of a clear bottom white 96-well plate (Corning) at 3000 to 5000 cells 24 hours before compound treatment. The compound was diluted in DMSO (diluted each three-fold, to a total of 12 concentrations) and injected at 0.5 μL each so as to be a final concentration of 0.3 nM to 50 μM. After 72 hours of the compound treatment, they were treated with CellTiter-Glo Luminescent Cell Viability assay (Promega) and stored at room temperature for 10 minutes, and luminescence intensities were measured with a reader (SynergyNeo, Biotek) to count viable cells. Each experiment was performed three times repeatedly. The result values were calculated as the cell growth rate (%) compared to the control treated with the solvent. The graph was derived using the GraphPad Prism program (version 5.0), the GI50 (nM) values were calculated, and the results were shown in Table 3 below.

[2] = molecular target: T1, human GST-HPK1 (1-346) (Homo sapiens, UniProt Q92918); experiment: HPK1 enzyme inhibitory ability (ADP-Glo kinase assay); type: biochemical; conditions: human GST-HPK1 3 ng, ATP 3 uM, 25° C. 2 hours
T1 construct: purified human GST-HPK1 (1-346, Signalchem) enzyme; purchased Signalchem
T1 sequence (Q92918 1-346): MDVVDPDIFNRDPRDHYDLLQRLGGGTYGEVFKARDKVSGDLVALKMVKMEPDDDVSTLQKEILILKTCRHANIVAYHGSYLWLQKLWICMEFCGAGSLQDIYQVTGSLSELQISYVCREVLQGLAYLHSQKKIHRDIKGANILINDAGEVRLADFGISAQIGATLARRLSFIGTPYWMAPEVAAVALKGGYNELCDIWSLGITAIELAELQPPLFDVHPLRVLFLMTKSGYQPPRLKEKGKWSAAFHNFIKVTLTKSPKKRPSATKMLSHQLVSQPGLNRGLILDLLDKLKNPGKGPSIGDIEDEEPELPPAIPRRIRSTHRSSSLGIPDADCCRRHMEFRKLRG
In short: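 Human GST-HPK1(1-346), 3 ng, reacted with 3 uM ATP and specific substrate in 40 mM Tris-HCl pH 7.4, 20 mM MgCl2, 0.5 mg/mL BSA, 50 uM DTT for 2 h at 25° C. ADP-Glo luminescence read; IC50 (nM) relative to untreated solvent control.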

[3] = molecular target: T2, human FLT3-ITD enzyme (Homo sapiens, UniProt P36888); experiment: FLT3 enzyme inhibitory ability (ADP-Glo kinase assay); type: biochemical; conditions: human FLT3-ITD enzyme 10 ng, ATP 10 μM, 25° C. 1 hour
T2 sequence (P36888 1-993): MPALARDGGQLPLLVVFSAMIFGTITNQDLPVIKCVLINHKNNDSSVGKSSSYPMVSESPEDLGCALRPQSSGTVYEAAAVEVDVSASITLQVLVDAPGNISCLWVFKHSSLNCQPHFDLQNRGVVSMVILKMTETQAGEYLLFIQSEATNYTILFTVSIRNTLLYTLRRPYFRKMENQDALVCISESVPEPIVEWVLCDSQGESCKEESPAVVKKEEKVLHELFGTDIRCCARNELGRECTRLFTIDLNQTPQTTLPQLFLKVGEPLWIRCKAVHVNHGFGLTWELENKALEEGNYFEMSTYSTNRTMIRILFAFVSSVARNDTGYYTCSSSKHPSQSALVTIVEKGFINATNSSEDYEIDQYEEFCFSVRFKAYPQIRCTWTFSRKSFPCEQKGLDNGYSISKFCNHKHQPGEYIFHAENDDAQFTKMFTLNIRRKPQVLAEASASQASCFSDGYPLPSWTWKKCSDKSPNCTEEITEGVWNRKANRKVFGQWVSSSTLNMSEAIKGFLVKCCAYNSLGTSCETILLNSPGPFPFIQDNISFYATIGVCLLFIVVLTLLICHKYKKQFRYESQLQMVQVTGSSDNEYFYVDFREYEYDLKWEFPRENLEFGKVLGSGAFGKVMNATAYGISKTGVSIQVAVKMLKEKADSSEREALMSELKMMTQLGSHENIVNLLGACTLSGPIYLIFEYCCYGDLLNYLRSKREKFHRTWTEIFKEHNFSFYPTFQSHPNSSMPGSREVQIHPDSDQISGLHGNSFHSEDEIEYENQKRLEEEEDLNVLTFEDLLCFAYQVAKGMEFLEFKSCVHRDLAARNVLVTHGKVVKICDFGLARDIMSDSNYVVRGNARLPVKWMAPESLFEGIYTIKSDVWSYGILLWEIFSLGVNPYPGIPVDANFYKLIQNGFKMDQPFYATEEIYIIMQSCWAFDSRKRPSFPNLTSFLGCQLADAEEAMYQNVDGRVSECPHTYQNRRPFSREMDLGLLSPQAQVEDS
In short: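 Purified human FLT3-ITD (10 ng) with 10 μM ATP and specific substrate in 40 mM Tris-HCl pH 7.4, 20 mM MgCl2, 0.5 mg/mL BSA, 50 μM DTT, 1 h at 25 °C. ADP formation read by ADP-Glo luminescence; IC50 (nM) versus solvent-treated control.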

[4] = tested on: MCF-7 cells; experiment: Breast cancer cell line proliferation inhibitory activity (CellTiter-Glo 2.0); type: cell-based; conditions: Homo sapiens, MCF7, 120 hours
Description: In order to evaluate the breast cancer cell line cell proliferation inhibitory activities of Examples according to the present invention, the following experiment was performed. Breast cancer cells of MCF-7 (Korean Cell Line Bank) were planted in a clear bottom white 96-well plate (Corning) so as to be 3×10^3/150 μl/well, and a culture solution comprising the compound continuously diluted in multiples of 3 at 12 concentrations (0.00001-2 mM) and a DMSO control group was added by 0.5 μl/well and treated so that the final concentration was 0.00005-10 μM, and then cultured in a 37° C. CO2 incubator for 120 hours. After 120 hours, the plate treated with the compound is taken out, and CellTiter-Glo® 2.0 Assay (Promega) solution is treated at 150 μl/well and then they mix well. They mix well at room temperature for 10 minutes or so, and the fluorescence is measured with a microplate reader. The data were expressed as a percentage in proportion to the vehicle standard treated cells, the GI50 (nM) values were calculated using GraphPad Prism 8.3.0 (GraphPad software Inc., San Diego), and the results were shown in Table 3 below.

Row | Compound | GI50 [1] [nM] | pIC50 [2] | pIC50 [3] | GI50 [4] [nM]
1 | CN1CCN(c2ccc(Nc3nc(N4N=CCC4c4ccccc4)c4sccc4n3)cc2)CC1 (centres unmarked) [Example 1, N-(4-(4-methylpiperazin-1-yl)phenyl)-4-(5-phenyl-4,5-dihydro-1H-pyrazol-1-yl)thieno[3,2-d]pyrimidin-2-amine] | > 500 | < 6.30 | 6.30 to 6.60 | > 500
2 | C1=NN(c2nc(Nc3ccc(N4CCOCC4)cc3)nc3ccsc23)C(c2ccccc2)C1 (centres unmarked) [Example 3, N-(4-morpholinophenyl)-4-(5-phenyl-4,5-dihydro-1H-pyrazol-1-yl)thieno[3,2-d]pyrimidin-2-amine] | > 500 |  |  | 
3 | CN1CCN(c2ccc(Nc3nc(N4N=CCC4c4ccccc4)c4sccc4n3)nc2)CC1 (centres unmarked) [Example 4, N-(5-(4-methylpiperazin-1-yl)pyridin-2-yl)-4-(5-phenyl-4,5-dihydro-1H-pyrazol-1-yl)thieno[3,2-d]pyrimidin-2-amine] | > 500 |  | < 6.30 | 
4 | COc1cc(N2CCN(C)CC2)ccc1Nc1nc(N2N=CCC2c2ccccc2)c2sccc2n1 (centres unmarked) [Example 6, N-(2-methoxy-4-(4-methylpiperazin-1-yl)phenyl)-4-(5-phenyl-4,5-dihydro-1H-pyrazol-1-yl)thieno[3,2-d]pyrimidin-2-amine] | > 500 | < 6.30 | < 6.30 | > 500
5 | COc1cc(Nc2nc(N3N=CCC3c3ccccc3)c3sccc3n2)ccc1N1CCC(N2CCN(C)CC2)CC1 (centres unmarked) [Example 8, N-(3-methoxy-4-(4-(4-methylpiperazin-1-yl)piperidin-1-yl)phenyl)-4-(5-phenyl-4,5-dihydro-1H-pyrazol-1-yl)thieno[3,2-d]pyrimidin-2-amine] | ≥ 250 | < 6.30 | < 6.30 | > 500
6 | COc1cc(N2CCC(N3CCN(C)CC3)CC2)ccc1Nc1nc(N2N=CCC2c2ccccc2)c2sccc2n1 (centres unmarked) [Example 10, N-(2-methoxy-4-(4-(4-methylpiperazin-1-yl)piperidin-1-yl)phenyl)-4-(5-phenyl-4,5-dihydro-1H-pyrazol-1-yl)thieno[3,2-d]pyrimidin-2-amine] | > 500 |  | ≤ 6.60 | 
7 | CCc1cc(Nc2nc(N3N=CCC3c3ccccc3)c3sccc3n2)cc(OCCN2CCC(O)CC2)c1 (centres unmarked) [Example 16, 1-(2-(3-ethyl-5-((4-(5-phenyl-4,5-dihydro-1H-pyrazol-1-yl)thieno[3,2-d]pyrimidin-2-yl)amino)phenoxy)ethyl)piperidin-4-ol] | > 500 | < 6.30 | < 6.30 | > 500
8 | Cc1cc(N2CCOCC2)ccc1Nc1nc(N2N=CCC2c2ccccc2)c2sccc2n1 (centres unmarked) [Example 21, N-(2-methyl-4-morpholinophenyl)-4-(5-phenyl-4,5-dihydro-1H-pyrazol-1-yl)thieno[3,2-d]pyrimidin-2-amine] | > 500 |  |  | 
9 | O=C(c1ccc(Nc2nc(N3N=CCC3c3ccccc3)c3sccc3n2)cc1)N1CCOCC1 (centres unmarked) [Example 22, morpholino(4-((4-(5-phenyl-4,5-dihydro-1H-pyrazol-1-yl)thieno[3,2-d]pyrimidin-2-yl)amino)phenyl)methanone] | > 500 |  |  | 
10 | Cc1cn(Cc2ccc(Nc3nc(N4N=CCC4c4ccccc4)c4sccc4n3)cc2)cn1 (centres unmarked) [Example 23, N-(4-((4-methyl-1H-imidazol-1-yl)methyl)phenyl)-4-(5-phenyl-4,5-dihydro-1H-pyrazol-1-yl)thieno[3,2-d]pyrimidin-2-amine] | > 500 |  |  | 
11 | Cc1cn(Cc2cccc(Nc3nc(N4N=CCC4c4ccccc4)c4sccc4n3)c2)cn1 (centres unmarked) [Example 24, N-(3-((4-methyl-1H-imidazol-1-yl)methyl)phenyl)-4-(5-phenyl-4,5-dihydro-1H-pyrazol-1-yl)thieno[3,2-d]pyrimidin-2-amine] | > 500 |  |  | 
12 | CN(C)CCn1cc(Nc2nc(N3N=CCC3c3ccccc3)c3sccc3n2)cn1 (centres unmarked) [Example 27, N-(1-(2-(dimethylamino)ethyl)-1H-pyrazol-4-yl)-4-(5-phenyl-4,5-dihydro-1H-pyrazol-1-yl)thieno[3,2-d]pyrimidin-2-amine] | > 500 |  |  | 
13 | COc1cc(Nc2nc(N3N=CCC3c3ccccc3)c3sccc3n2)ccc1C(=O)NC1CCN(C)CC1 (centres unmarked) [Example 52, 2-methoxy-N-(1-methylpiperidin-4-yl)-4-((4-(5-phenyl-4,5-dihydro-1H-pyrazol-1-yl)thieno[3,2-d]pyrimidin-2-yl)amino)benzamide] | ≥ 250 |  | < 6.30 | 
14 | COc1cc(Nc2nc(N3OCC[C@H]3c3ccccc3)c3sccc3n2)ccc1N1CCC(N2CCN(C)CC2)CC1 [Example 57, (S)-N-(3-methoxy-4-(4-(4-methylpiperazin-1-yl)piperidin-1-yl)phenyl)-4-(3-phenylisoxazolidin-2-yl)thieno[3,2-d]pyrimidin-2-amine] | > 500 | < 6.30 | 6.30 to 6.60 | > 500
15 | CN(C)[C@H]1CCN(c2cccc(Nc3nc(N4OCC[C@@H]4c4ccccc4)c4cc[nH]c4n3)c2)C1 [Example 126, N-(3-((S)-3-(dimethylamino)pyrrolidin-1-yl)phenyl)-4-((R)-3-phenylisoxazolidin-2-yl)-7H-pyrrolo[2,3-d]pyrimidin-2-amine] |  | < 6.30 | < 6.30 | > 500
16 | CN1CCN(c2ccc(Nc3nc(N4OCC[C@@H]4c4ccccc4)c4cc[nH]c4n3)cc2)CC1 [Example 128, (R)-N-(4-(4-methylpiperazin-1-yl)phenyl)-4-(3-phenylisoxazolidin-2-yl)-7H-pyrrolo[2,3-d]pyrimidin-2-amine] | 250 to 500 |  |  | 
17 | COc1cc(Nc2nc(N3OCC[C@@H]3c3ccccc3)c3cc[nH]c3n2)ccc1N1CCC(N2CCN(C)CC2)CC1 [Example 129, (R)-N-(3-methoxy-4-(4-(4-methylpiperazin-1-yl)piperidin-1-yl)phenyl)-4-(3-phenylisoxazolidin-2-yl)-7H-pyrrolo[2,3-d]pyrimidin-2-amine] | 250 to 500 |  | < 6.30 | 
